One assay deals with C57BL6/J mice. The format is in vivo, mouse. The settings on record: for therapeutic effect on kidney damage (H & E, PAS): mevalonate 30 mg/kg i.p. 4 days. The procedure: (§1) In order to examine whether administration of an isoprenoid-based compound reduces statin-induced adverse effects even in vivo, 100 mg of statin (fluvastatin) was added to 1 kg of feed, and the mixture was fed to 8-week-old C57BL6/J mice for 14 days. Subsequently, mevalonate was administered intraperitoneally to the mice at a dose of 30 mg per kg of mouse body weight for 4 consecutive days, and then lipopolysaccharide (SIGMA) was administered intraperitoneally to mice at a lipopolysaccharide dose of 12 mg per kg of mouse body weight, thereby producing oxysterol in the mouse body. 72 hours after administration of the lipopolysaccharide, the mice were euthanized, and then kidney tissue was extracted by performing cardiac perfusion with 4% paraformaldehyde in DPBS (Dulbecco's phosphate-buffered saline). The extracted kidney tissue was subjected to H & E (Hematoxylin & Eosin) staining, PAS (periodic acid-Schiff) staining and immunohistochemistry of neutrophil gelatinase-associated lipocalin (NGAL) that is an early diagnostic marker of acute renal failure, thereby determining whether acute kidney damage and acute renal failure would occur. In addition, the concentrations of total cholesterol, high-density lipoprotein (HDL) and low-density lipoprotein (LDL) were measured.

In assay [1] the test system is neutrophil gelatinase-associated lipocalin (NGAL). Description: Kidney NGAL immunohistochemistry in fluvastatin-fed mice given mevalonate and lipopolysaccharide (Example 6). The class given is in vivo, mouse. Particulars: mevalonate 30 mg/kg i.p. 4 days. The procedure:
as §1

The nature of assay [2]: Total cholesterol, HDL and LDL concentrations in mice (Example 6). The format is in vivo, mouse. The settings on record: statin, oxysterol and mevalonate all administered. The procedure: as §1
The test system of assay [3] is human kidney tubule cell line HK-2. Description: LDH assay of cell death in HK-2 cells treated with statin and/or oxysterol. The format is cell-based. Particulars: 1 μM zaragozic acid with 10 μg/mL 25-hydroxycholesterol. As to the method: To analyze the relationship between statins and oxysterols, the human kidney tubule cell line HK-2 (human kidney-2 cell line; ATCC CRL-2190™) was seeded into a 24-well plate at a density of 1×10^5 per well. […] Subsequently, the cells were cultured in an incubator at 37° C. under 5% CO2 for 72 hours, and then the degree of cell death in each well was analyzed using an LDH assay kit (Takara, Cat #. MK401).
In order to examine whether the same results appear even in the presence of various types of oxysteols, an experiment was performed in the same manner as Example 1.1. As statin, 5 μM of atorvastatin was used, and as oxysterols, 0.1 μg/mL of 25-hydroxycholesterol, 7-ketocholesterol, cholesterol 5,6-epoxide, 24-hydroxycholesterol and 27-hydroxycholesterol were used.
In order to examine whether isoprenoid-based compounds can reduce adverse effects which are induced by co-administration of oxysterol and statin, the cell line was treated with oxysterol (0.1 μg/mL of 25-hydroxycholestyerol) and statin (5 μM of atorvastatin) in the same manner as Example 1.1, and treated with 10 μM of farnesyl pyrophosphate, 200 μM of mevalonate or 10 μM of geranylgeranyl pyrophosphate, which is an isoprenoid-based compound.

Where two headings read alike, the source gives them in different places.

Consider `CC(O)(CCO)CC(=O)O` (centres unmarked) [mevalonate], for which the “therapeutic effect on kidney damage (H & E, PAS)” value with C57BL6/J mice (group with statin and oxysterol co-administered) is recorded as “exhibited a significant effect”; in the assay on C57BL6/J mice (kidney damage caused by oxysterol formation, no statin) it was “showed no therapeutic effect”. For the same compound, in the assay with C57BL6/J mice (statin, oxysterol and mevalonate all administered), the “damage to kidney tissue” value is on record as “kidney tissue was not damaged”. The “expression of NGAL” value in assay [1] (oxysterol generation induced after administration of statin) is on record as “the expression of NGAL significantly decreased”. For the same compound, in assay [1] (oxysterol generation induced without statin), the “therapeutic effect on expression of NGAL” value is “showed no significant therapeutic effect”. Further, in assay [2], the “concentration of low-density lipoprotein” value is “decreased”. The “concentration of total cholesterol” value in assay [2] is recorded as “decreased”.

For `C=C(CC[C@]12O[C@H](C(=O)O)[C@@](O)(C(=O)O)[C@](C(=O)O)(O1)[C@H](OC(=O)/C=C/[C@@H](C)C[C@@H](C)CC)[C@H]2O)[C@@H](OC(C)=O)[C@H](C)Cc1ccccc1` [zaragozic acid], the “adverse effects / viability of the cells” value in assay [3] was “the adverse effects were reduced to some degrees, and thus the viability of the cells increased”.

Source of the values: patent US11590150B2, “Pharmaceutical composition for preventing or treating adverse drug reactions by statin” (INDUSTRY-ACADEMIC COOPERATION FOUNDATION, YONSEI UNIVERSITY, priority 2017, dated 2023).
